Source: paper PMC7356358 (Biomolecules, 2020)
Like-named read-outs stand apart in the source and are kept apart here.

Legend:
PfHsp70-1 [1] = test: Model peptide substrate binding by MP-SPR, PfHsp70-1; parameters: species or system Plasmodium falciparum; conditions: for affinity of PfHsp70-1 relative to the non-enriched peptide (GFRVVLMYRF, ALLLMYRR): presence of ADP
Source text: (§1) The Hsp70 ligands were immobilized as previously described.

DnaK [2] = target: T1, DnaK (Escherichia coli, UniProt P0A6Y8); conditions: MP-SPR
Target sequence in this assay (P0A6Y8 whole entry): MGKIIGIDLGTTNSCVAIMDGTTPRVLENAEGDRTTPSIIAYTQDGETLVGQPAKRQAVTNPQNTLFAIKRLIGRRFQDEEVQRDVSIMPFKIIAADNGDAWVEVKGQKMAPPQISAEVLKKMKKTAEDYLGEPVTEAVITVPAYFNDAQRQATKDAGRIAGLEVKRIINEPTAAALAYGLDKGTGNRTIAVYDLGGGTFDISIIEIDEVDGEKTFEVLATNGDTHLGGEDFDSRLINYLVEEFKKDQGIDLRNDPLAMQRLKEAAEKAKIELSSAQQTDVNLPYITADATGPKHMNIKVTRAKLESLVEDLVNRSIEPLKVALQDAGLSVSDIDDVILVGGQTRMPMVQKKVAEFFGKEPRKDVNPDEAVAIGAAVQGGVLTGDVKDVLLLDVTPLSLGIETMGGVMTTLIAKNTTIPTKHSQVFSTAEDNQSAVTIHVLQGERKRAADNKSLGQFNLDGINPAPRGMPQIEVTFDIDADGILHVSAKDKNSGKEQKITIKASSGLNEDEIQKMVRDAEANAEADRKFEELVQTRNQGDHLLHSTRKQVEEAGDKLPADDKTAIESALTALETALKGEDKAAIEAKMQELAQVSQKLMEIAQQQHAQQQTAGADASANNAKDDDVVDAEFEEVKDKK
Description: (§6) As ligands, the recombinant Hsp70 proteins were immobilized on the CMD3D 500L chip. The analyte (respective Hsp70 protein) was prepared at various concentrations of 0, 125, 250, 500, 1000 and 2000 nM, respectively and injected at 50 μL/sec onto each channel with immobilized ligands. A reference channel without immobilized protein served as the control for non-specific binding and changes in refractive index. The analysis was conducted either in the absence or presence of 5 mM ATP/ADP. Association was allowed for 2 min, while dissociation was monitored for 8 min. Data analysis was conducted after double referencing by subtraction of both the baseline RU (buffer with ATP/ADP plus BSA as control protein) and RU from the reference channel. Kinetics steady-state equilibrium constant data were processed after concatenating the responses of all five analyte concentrations by global fitting using TraceDrawer software version 1.8 (Ridgeview Instruments).

[3] = ATPase activity (released inorganic phosphate); assay type: biochemical; conditions: basal ATPase, 0.4 μM Hsp70, ATP 0-5 mM, buffer HKMD pH 7.5, SD of three independent assays
Description: (§7) Hsp70 proteins at final concentration of 0.4 μM were each incubated for 5 min in buffer HKMD (10 mM HEPES-KOH pH 7.5, 100 mM KCl, 2 mM MgCl2 and 0.5 mM DTT). The reaction was initiated by the addition of ATP at various concentrations (0–5 mM) and samples were analyzed every 30 min for 4 h.

[4] = Heat stability of secondary structure by far-UV CD; assay type: physicochemical; conditions: far-UV CD at 222 nm
Description: Spectra was averaged for 15 scans after baseline correction (buffer without recombinant protein). The spectra were deconvoluted to α-helix, β-sheet, β-turn and unordered regions, using the Dichroweb server, (http://dichroweb.cryst.bbk.ac.uk; [37]). The effect of heat stress on the secondary structure of the Hsp70s was investigated by monitoring the spectral changes of each protein at various temperatures (19–95 °C). The folded states of each Hsp70 protein at any given temperature were determined using spectral readings obtained at 222 nm as previously described. In a separate experiment, the analysis of PfAdoMetDC protein co-expressed with the various chaperone sets was conducted by monitoring the CD spectrum at 190–240 nm at 22 °C. The assay was repeated in the presence of PfAdoMetDC substrate, S-adenosylmethionine hydrochloride (SAM), as previously described with minor modifications. Briefly, PfAdoMetDC protein was preincubated in PBS supplemented with 100 μM SAM for 30 min prior to analysis at 25 °C. The resultant spectra were monitored and averaged following baseline correction (100 μM SAM using buffer void of the protein).

PfAdoMetDC = test: Co-expression of PfAdoMetDC with supplementary chaperones in E. coli, fold by CD/fluorescence; assay type: cell-based, Plasmodium falciparum; conditions: co-expression with DnaJ in E. coli BL21 Star (DE3); purified PfAdoMetDC analysed by CD, ANS and intrinsic fluorescence
Description: Briefly, the transformed E. coli BL21 Star (DE3) cells were cultured in LB broth supplemented with 100 μg/mL ampicillin (Sigma Aldrich) to select for pASKIBA3 and 50 μg/mL spectinomycin (Sigma Aldrich), to select for pBB535 and pBB542, respectively. As control, PfAdoMetDC expressed alone (without supplementary chaperones), was expressed in E. coli BL21 StarTM (DE3) cells as previously described [33]. The expression of chaperones was initiated by addition of 1 mM IPTG and at OD600 = 0.2 while the expression of PfAdoMetDC was initiated by addition of 2 ng/mL anhydroxytetracycline (AHT) (IBA GmbH, Göttingen, Germany) at OD600 = 0.7. Cells were incubated for 24 h (37 °C, 250 rpm) from the time of induction with IPTG. The cells were harvested by centrifugation (5000 g, 20 min, 4 °C) and the pellet was resuspended in lysis buffer (100 mM Tris pH 7.5; 300 mM NaCl; 10 mM Imidazole, containing 1 mM aminoethyl benzenesulfonyl fluoride hydrochloride (AEBSF) and 1 mg/mL of lysozyme). […] Purified PfAdoMetDC protein was quantified using the Bradford assay. […] Following Strep-Tactin Sepharose affinity column purification, PfAdoMetDC was analyzed using an Äkta explorer system (Amersham Pharmacia Biotech; Buckinghamshire, UK) fast protein liquid chromatography (FPLC), to determine migration profiles of the protein preparations that were co-expressed with the various chaperones sets. The migration pattern of PfAdoMetDC as determined by Size exclusion chromatography (SEC) was used to infer the compact/relaxed state of its fold. Retention times of the respective protein preparation were determined by SEC at 22 °C in running buffer (50 mM Tris-HCl, pH 7.5, 1 mM DTT, 500 mM NaCl and 0.02% w/v NaN3) using Bio-Select SEC 250-5 column (BioRad) with a fractionation range of 1000–250,000 Da. […] The elution profiles of the protein preparations were determined as peaks obtained at 280 nm using a Spectra Series UV100 spectrophotometer (Thermo Fischer Scientific). […]

KPf [5] = conditions: MP-SPR; for effect of N enrichment of the peptide on affinity of KPf: presence of 5 mM ADP, N-enriched form versus this peptide
Target sequence in this assay (P11144 405-631 limits assumed): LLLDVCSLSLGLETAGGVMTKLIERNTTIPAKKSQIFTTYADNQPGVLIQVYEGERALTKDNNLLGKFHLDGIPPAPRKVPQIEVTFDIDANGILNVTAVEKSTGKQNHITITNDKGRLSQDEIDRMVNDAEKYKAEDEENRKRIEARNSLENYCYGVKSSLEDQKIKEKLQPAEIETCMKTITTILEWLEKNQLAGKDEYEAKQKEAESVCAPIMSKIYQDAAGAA
Description: The respective affinity of each Hsp70 for model peptide substrate was investigated by MP-SPR. The Hsp70 ligands were immobilized as previously described [36]. […] The analytes were injected at varying concentrations (0, 125 nM, 250 nM, 500 nM, 1000 nM and 2000 nM) over the immobilized ligands (Hsp70s). The analytes were injected at a flow rate of 100 µL/min and association and dissociation were allowed to occur for 10 min. The assay was conducted both in the absence and presence of 5 mM ADP/ATP. Analysis of association and dissociation data was conducted as previously described using TraceDrawer software version 1.8 (Ridgeview Instruments).

DnaK [6] = target: T1, DnaK; test: Model peptide substrate binding by MP-SPR, DnaK; parameters: His6 (polyhistidine) (N); made in house; host or cells: E. coli XL1 Blue; conditions: for effect of asparagine enrichment of the peptide on DnaK's affinity: presence of ADP, N-enriched form versus this peptide; for affinity of DnaK for peptide: peptide 0-2000 nM over immobilized DnaK, presence of ADP (5 mM)
Source text: as §1
Target sequence in this assay (P0A6Y8 whole entry): as the sequence (P0A6Y8 whole entry) above

KPf [7] = test: ATP binding affinity by MP-SPR, KPf; parameters: species or system E. coli / P. falciparum; conditions: read-out: ATP KD (± standard deviation), 25 °C, immobilized KPf, ATP analyte 0-20 μM, steady state equilibrium, three independent assays
Description: This assay was conducted at room temperature (25 °C) using a BioNavis Multi-parametric surface plasmon resonance (MP-SPR; BioNavis; Tampere, Finland) spectroscopy system. […] Steady state equilibrium constant data were processed and analyzed using TraceDrawer software version 1.8 (Ridgeview Instruments; Uppsala, Sweden).
Proteins Vmax (n/mol/min/mg) Km (µM)
(§2) Standard deviations shown represent three
(§3) independent assays made using separate protein purification batches. Statistical significance of data was
KD /µM (± standard deviation)
(§4) The standard deviations shown in parenthesis were […]

PfHsp70-1 [8] = test: Self-association of PfHsp70-1 by MP-SPR; assay type: binding, Plasmodium falciparum
Description: as §6

DnaK [9] = target: T1, DnaK; test: Steady-state multi-parametric surface plasmon resonance at 25 °C with Hsp70 immobilised by amine coupling and ATP (0-20 uM) injected as analyte.; assay type: binding; parameters: recombinant full-length, N-terminal His6 tag (pQE30), expressed in E. coli XL1 Blue; conditions: SD, n = 3; read-out: KD /µM (± standard deviation)
Description: Association was allowed for 2 min and dissociation was monitored for 8 min.
as §2, §3
(§5) Table S2. Comparative ATP binding affinities for the Hsp70 proteins
as §4
Target sequence in this assay (P0A6Y8 2-638): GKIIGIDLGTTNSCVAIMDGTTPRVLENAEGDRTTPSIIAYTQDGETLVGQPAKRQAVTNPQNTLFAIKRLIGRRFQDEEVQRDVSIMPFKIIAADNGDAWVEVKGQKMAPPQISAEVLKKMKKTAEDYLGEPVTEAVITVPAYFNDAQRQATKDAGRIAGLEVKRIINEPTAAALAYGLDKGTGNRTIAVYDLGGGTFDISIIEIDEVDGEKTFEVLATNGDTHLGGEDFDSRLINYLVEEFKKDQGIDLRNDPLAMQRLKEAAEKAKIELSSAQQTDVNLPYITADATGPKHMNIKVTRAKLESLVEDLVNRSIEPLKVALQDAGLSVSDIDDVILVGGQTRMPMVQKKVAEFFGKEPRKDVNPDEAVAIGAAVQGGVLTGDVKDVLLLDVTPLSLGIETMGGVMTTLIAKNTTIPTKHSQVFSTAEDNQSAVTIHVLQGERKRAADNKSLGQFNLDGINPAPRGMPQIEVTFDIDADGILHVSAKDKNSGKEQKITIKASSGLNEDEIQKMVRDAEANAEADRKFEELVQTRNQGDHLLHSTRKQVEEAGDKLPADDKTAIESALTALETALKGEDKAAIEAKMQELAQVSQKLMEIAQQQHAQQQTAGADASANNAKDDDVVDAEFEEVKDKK

KPf [10] = conditions: read-out: Km (µM), + PfHsp40; SD, n = 3
Description: as §7
Standard deviations shown represent three independent assays made using separate protein purification batches.
validated by one way ANOVA test (p< 0.05 *) and (p<0.01**).

KPf [11] = conditions: SD, n = 3
Source text: as §2, §3, §5, §4

[12] = 0.2 μM protein in PBS pH 7.5, 19–95 °C

PfHsp70-1, sequence (P11144 1-630 limits assumed): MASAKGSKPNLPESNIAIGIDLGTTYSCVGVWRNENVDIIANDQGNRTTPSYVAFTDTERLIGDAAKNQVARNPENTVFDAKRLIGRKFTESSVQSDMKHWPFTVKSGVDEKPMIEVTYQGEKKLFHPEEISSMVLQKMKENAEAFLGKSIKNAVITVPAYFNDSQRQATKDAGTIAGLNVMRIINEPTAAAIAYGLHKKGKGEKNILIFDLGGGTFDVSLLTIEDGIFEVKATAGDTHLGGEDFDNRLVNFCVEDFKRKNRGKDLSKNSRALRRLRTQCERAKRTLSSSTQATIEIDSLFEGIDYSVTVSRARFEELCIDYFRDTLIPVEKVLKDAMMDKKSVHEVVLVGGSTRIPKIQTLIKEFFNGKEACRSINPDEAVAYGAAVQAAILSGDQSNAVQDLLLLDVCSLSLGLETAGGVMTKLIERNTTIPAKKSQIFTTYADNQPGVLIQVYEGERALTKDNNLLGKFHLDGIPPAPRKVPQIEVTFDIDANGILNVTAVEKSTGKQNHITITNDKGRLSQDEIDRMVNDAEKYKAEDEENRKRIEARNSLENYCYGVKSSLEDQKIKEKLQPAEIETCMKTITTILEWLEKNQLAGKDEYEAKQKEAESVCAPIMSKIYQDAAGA

## ANNNMYRR
PfHsp70-1 [1]
  affinity of PfHsp70-1 relative to the non-enriched peptide (GFRVVLMYRF, ALLLMYRR): higher affinity

## DnaK: recombinant (His)6-tagged Escherichia coli Hsp70 (DnaK)
DnaK [2]; analyte DnaK 0-2000 nM over immobilized DnaK, + 5 mM ATP, global fit
  Ka: 1.38 (±0.08) × 10^2 Ms^−1
DnaK [2]; analyte DnaK over immobilized DnaK, + 5 mM ADP
  Ka: 1.22 (±0.13) × 10^2 Ms^−1
DnaK [2]; analyte DnaK over immobilized DnaK, no nucleotide
  Ka: 1.27 (±0.07) × 10^3 Ms^−1
[3]
  Vmax: 14.33 (± 1.4) n/mol/min/mg
[4]; [12]
  temperature above which the protein rapidly unfolded: above 45 °C
  temperature of complete unfolding: approximately 68 °C
PfAdoMetDC
  effect of co-produced chaperone on PfAdoMetDC folding: did not support PfAdoMetDC folding

## ALLLMYRR [canonical Hsp70 model peptide substrate]
KPf [5]
  effect of N enrichment of the peptide on affinity of KPf: not enhanced
DnaK [6]
  effect of asparagine enrichment of the peptide on DnaK's affinity: did not enhance

## Nc1ncnc2c1ncn2[C@@H]1O[C@H](COP(=O)(O)OP(=O)(O)OP(=O)(O)O)[C@@H](O)[C@H]1O [ATP]
KPf [7]
  Kd: 0.38 µM

## GFRNNNMYRF
PfHsp70-1 [1]
  affinity of PfHsp70-1 relative to the non-enriched peptide (GFRVVLMYRF, ALLLMYRR): higher affinity

## NRLLTG [canonical Hsp70 model peptide substrate]
DnaK [6]
  affinity of DnaK for peptide: nanomolar range

## NRNNTG [asparagine-enriched form of NRLLTG]
KPf [5]; peptide over immobilized KPf, presence of ADP, higher than for NRLLTG
  affinity of KPf for peptide: nanomolar range
PfHsp70-1 [1]; peptide over immobilized PfHsp70-1, presence of ADP, higher than for NRLLTG
  affinity of PfHsp70-1 for peptide: nanomolar range
DnaK [6]
  affinity of DnaK for peptide: micromolar range

## GFRVVLMYRF [canonical Hsp70 model peptide substrate]
KPf [5]
  effect of N enrichment of the peptide on affinity of KPf: not enhanced
DnaK [6]
  effect of asparagine enrichment of the peptide on DnaK's affinity: did not enhance

## PfHsp70-1: recombinant Plasmodium falciparum Hsp70-1, cytosol-localized molecular chaperone (PF3D7_0818900)
[3]
  Vmax: 22.45 (± 1.8) n/mol/min/mg
PfHsp70-1 [8]; analyte PfHsp70-1 0-2000 nM over immobilized PfHsp70-1, + 5 mM ATP
  association rate constant (kon): 2.14 (±0.04) × 10^4 Ms^−1
PfHsp70-1 [8]; analyte PfHsp70-1 over immobilized PfHsp70-1, + 5 mM ADP
  association rate constant (kon): 1.00 (±0.17) × 10^2 Ms^−1
PfHsp70-1 [8]; analyte PfHsp70-1 over immobilized PfHsp70-1, no nucleotide
  association rate constant (kon): 8.51 (±1.20) × 10^3 Ms^−1
[4]; [12]
  temperature of complete unfolding: around 90 °C
[4]; 0.2 μM protein in PBS pH 7.5, 19–95 °C, relative to 19 °C
  temperature up to which at least 50% fold is maintained: 60 °C
[4]; two-step unfolding pattern
  temperature range of second unfolding phase: 75–90 °C
PfAdoMetDC
  effect of co-produced chaperone on PfAdoMetDC folding: fully folded status

## Nc1ncnc2c1ncn2[C@@H]1O[C@H](COP(=O)(O)OP(=O)(O)OP(=O)(O)O)[C@@H](O)[C@H]1O [ATP, adenosine 5'-triphosphate]
DnaK [9]
  Kd: 83.8 µM
KPf [10]
  Km: 25.7 µM
KPf [11]
  Km: 29.6 µM

## GroEL: E. coli chaperonin co-expressed as supplementary chaperone
PfAdoMetDC
  effect of co-produced chaperone on PfAdoMetDC folding: restoration of the ß-conformation
